{"source": "patent US7087227B2", "about": "“Cartilage composites and methods of use” (Barnes-Jewish Hospital, priority 1997, dated 2006)", "molecules": {"B1": {"name": "plasminogen: added to enhance the activation of latent MMPs via the plasminogen activator/plasmin cascade (protein, UniProt P00747 20-810, looked up)", "Plasminogen": "EPLDDYVNTQGASLFSVTKKQLGAGSIEECAAKCEEDEEFTCRAFQYHSKEQQCVIMAENRKSSIIIRMRDVVLFEKKVYLSECKTGNGKNYRGTMSKTKNGITCQKWSSTSPHRPRFSPATHPSEGLEENYCRNPDNDPQGPWCYTTDPEKRYDYCDILECEEECMHCSGENYDGKISKTMSGLECQAWDSQSPHAHGYIPSKFPNKNLKKNYCRNPDRELRPWCFTTDPNKRWELCDIPRCTTPPPSSGPTYQCLKGTGENYRGNVAVTVSGHTCQHWSAQTPHTHNRTPENFPCKNLDENYCRNPDGKRAPWCHTTNSQVRWEYCKIPSCDSSPVSTEQLAPTAPPELTPVVQDCYHGDGQSYRGTSSTTTTGKKCQSWSSMTPHRHQKTPENYPNAGLTMNYCRNPDADKGPWCFTTDPSVRWEYCNLKKCSGTEASVVAPPPVVLLPDVETPSEEDCMFGNGKGYRGKRATTVTGTPCQDWAAQEPHRHSIFTPETNPRAGLEKNYCRNPDGDVGGPWCYTTNPRKLYDYCDVPQCAAPSFDCGKPQVEPKKCPGRVVGGCVAHPHSWPWQVSLRTRFGMHFCGGTLISPEWVLTAAHCLEKSPRPSSYKVILGAHQEVNLEPHVQEIEVSRLFLEPTRKDIALLKLSSPAVITDKVIPACLPSPNYVVADRTECFITGWGETQGTFGAGLLKEAQLPVIENKVCNRYEFLNGRVQSTELCAGHLAGGTDSCQGDSGGPLVCFEKDKYILQGVTSWGLGCARPNKPGVYVRVSRFVTWIEGVMRNN"}}, "assay_type_in_all_cases": "cell-based, human", "key": {"[1]": {"tested_on": "matrix metalloproteinases (MMPs)", "test": "Zymogram and Western analysis of chondrocyte-derived metalloproteinases in spent media", "conditions": "substrate gels", "procedure": "FIG. 10, in two parts, FIGS. 10A and 10B, represent SDS-substrate gel (zymogram) analysis of cytokine-mediated production of matrix metalloproteinases (MMPs) in fetal articular chondrocytes (neocartilage disks). Negative staining indicates the molecular weight (MW) in kDa of the active proteases. • Spent media were collected 72 h post stimulation with the indicated cytokine (5 ng/ml) and concentrated 16-fold by dialysis/lyophilization. • Unreduced samples were separated on 10% SDS substrate gels containing either gelatin (FIG. 10A) or casein (FIG. 10B) 0.1%. • MMPs were renatured following SDS removal by extensive washing in 2.5% Triton X-100 and lytic bands visualized via negative staining with Coomassie blue, following incubation in a calcium and zinc containing buffer for 4 hr at 37° C. • Latent enzyme activity is shown in lanes 1–4, while the corresponding active enzymes were prepared by preincubation with 1 mM 4-aminophenyl mercuric acetate (APMA lanes 5–8).\nConditioned media were thawed and identification of chondrocyte-derived metalloproteinases assessed by zymogen substrate gel electrophoresis, as well as Western analysis following SDS-PAGE. Further studies examined the effect of activating agents on synthesis of S-GAG and collagen via radiolabeled incorporation."}, "neocartilage [2]": {"tested_on": "neocartilage", "test": "Cytokine-induced resorption of neocartilage (matrix content, gross and histological appearance)", "conditions": "day 28 tissue stimulated for additional 36 days"}, "neocartilage [3]": {"tested_on": "neocartilage", "test": "Cytokine-induced resorption of neocartilage (matrix content, gross and histological appearance)", "procedure": "It is seen that chronic IL-1 stimulation alters cartilage staining for proteoglycan and collagen. • Day 60 neocartilages were treated with 1 ng/ml rhIL-1β for 30 days. Fresh media and cytokine were added every 48 hours. • Neocartilages were harvested (day 90) and stained with safranin-O and pentachrome as before. […] Magnification×100.\nNeocartilage cultures were established in 24 or 48 well plastic dishes (Corning) as described above (Example 1) and grown to day 30. The hyaline cartilage matrix was then stimulated to undergo autolytic degradation following 30 day activation with increasing concentrations of a variety of cytokine and/or inflammatory agents, including IL-1, Il-6, IL-17, TNF-α, LPS, and phorbol ester. Culture media were collected every 48 hours and subsequently changed by the addition of fresh media±inflammatory stimuli.\nCultures were terminated and the biochemical composition of the neocartilage matrix that remained was analyzed as described previously. Parallel samples were processed for light and transmission electron microscopy for histological evaluation of extracellular matrix components."}, "Fetal chondrocytes": {"tested_on": "Fetal chondrocytes", "test": "Effect of heparin on neocartilage formation", "conditions": "day 10–28", "procedure": "Day 10 neocartilage was treated with increasing amounts of heparin for 18 days. Fresh media, containing heparin and ascorbate were added every 72–96 hrs. Media were collected and frozen for future analysis. Cultures were harvested on day 28 and the S-GAG content (FIG. 18A) and OH-proline content (FIG. 18B) of the resultant neocartilage assayed as described hereinbelow.\nFetal chondrocytes were grown as described above and subdivided into three groups on day 10 to investigate the effect of heparin on neocartilage formation. In low doses, heparin is known to increase the activity of certain growth factors, for example the fibroblast growth factor (FGF) family of related proteins, by acting as a co-factor, whereas greater amounts of heparin will strip away certain growth factors from the extracellular matrix and thereby impede tissue repair.\nSterile heparin was added to the media at a final concentration of […] for the duration of the culture period (i.e. from day 10–28). Media were exchanged every 3–4 days and recovered for electrophoretic analysis of secreted proteins. Cell layers were removed and the S-GAG (FIG. 18A), hydroxy proline (FIG. 18B), and DNA content quantitated as before (FIG. 18)."}, "[4]": {"conditions": "cytokine 1.0 (ng/ml), chronic treatment"}, "[5]": {"conditions": "cytokine 5.0 (ng/ml), chronic treatment"}}}
{"molecule": "CCCCCCCCCCCCCC(=O)O[C@@H]1[C@@H](C)[C@@]2(O)[C@@H](C=C(CO)C[C@]3(O)C(=O)C(C)=C[C@@H]23)[C@@H]2C(C)(C)[C@]12OC(C)=O", "note": "[Phorbol ester]", "values": [{"measurement": "metalloproteinase synthesis induced", "setting": "[1]", "result": "specifically induced synthesis of gelatinase B"}]}
{"molecule": "IL-1β: cytokine used to stimulate resorption of neocartilage", "values": [{"measurement": "gross appearance of neocartilage on removal from plastic surface", "setting": "neocartilage [2]", "result": "retracted considerably upon removal from the plastic surface"}, {"measurement": "OH-proline content of tissue", "setting": "neocartilage [3]; cytokine 0.1 ng/ml, chronic treatment", "result": "572 ± 105", "unit": "pmol"}, {"measurement": "OH-proline content of tissue", "setting": "neocartilage [3]; [4]", "result": "541 ± 16", "unit": "pmol"}, {"measurement": "OH-proline content of tissue", "setting": "neocartilage [3]; [5]", "result": "501 ± 48", "unit": "pmol"}, {"measurement": "OH-proline content of tissue", "setting": "neocartilage [3]; cytokine + 50 mU plasminogen, cytokine concentration not printed on the line", "result": "460 ± 16", "unit": "pmol"}, {"measurement": "thickness of the synthesized matrix", "setting": "neocartilage [3]; day 60 neocartilage, 1 ng/ml for 30 days", "result": "significant reduction in the thickness of the synthesized matrix"}, {"measurement": "safranin-O and pentachrome staining intensity", "setting": "neocartilage [3]; day 60 neocartilage, 1 ng/ml for 30 days, versus untreated controls", "result": "Staining intensity is markedly reduced"}]}
{"molecule": "TNF-α", "values": [{"measurement": "gross appearance of neocartilage on removal from plastic surface", "setting": "neocartilage [2]", "result": "retracted considerably upon removal from the plastic surface"}, {"measurement": "OH-proline content of tissue", "setting": "neocartilage [3]; [4]", "result": 403, "unit": "pmol"}, {"measurement": "OH-proline content of tissue", "setting": "neocartilage [3]; [5]", "result": 355, "unit": "pmol"}]}
{"molecule": "heparin", "values": [{"measurement": "defect in matrix deposition", "setting": "Fetal chondrocytes; 2 μg/ml", "result": "much less severe"}, {"measurement": "inhibition in OH-proline (matrix deposition)", "setting": "Fetal chondrocytes; highest concentration of heparin (20 μg)", "result": 33, "unit": "%"}]}
{"molecule": "B1", "values": [{"measurement": "OH-proline content of tissue", "setting": "neocartilage [3]; 50 mU plasminogen alone, no cytokine, chronic treatment", "result": "1648 ± 72", "unit": "pmol"}]}
